Assay [1] relates to HL 60 tumor cells (human myeloid leukemia cell line). As to the kind of experiment: Differentiation of HL 60 tumor cells, NBT reduction. The conditions noted are these: HL 60 cells, free tributyrin dissolved in ethanol. The class given is cell-based. The protocol: The effectiveness of tributyrin drug vehicles was measured in HL 60 tumor cells (human myeloid leukemia cell line). HL 60 cells are a sensitive indicator of the effect of tributyrin. It brings about a differentiation of the tumor cells to granulocyte-like cells. The latter have the property of reducing NBT (nitro-blue tetrazolium) to a blue dye (H. P. Koeffler et al. Blood 62 1 (983) 709-721). Tributyrin-compritol particles, consisting of equal parts of tributyrin and compritol (glycerine tribehenate) were prepared as in Example 1. The overall lipid concentration was 5%, the Poloxamer 188 concentration likewise 5%. The particle size was 147 nm (PCS diameter), the polydispersion index 0.321. The differentiation effect was compared with that of free tributyrin, dissolved in ethanol. […] An adequate quantity of tributyrin-compritol nanoparticle dispersion was, like the corresponding quantities of surfactant solution and pure compritol particle dispersion, added to HL 60 cells and the NBT reduction ascertained after 6 days' incubation time at 37° C. and 5% carbon dioxide content.

Another assay deals with solid tumors. The conditions noted are these: oral preparation, phase 1 study; cited from earlier work.

As to `CCCC(=O)OCC(COC(=O)CCC)OC(=O)CCC` [tributyrin, 1,2,3 butyric acid glycerol ester], the “effective 50% dosage (ED 50%), differentiation effect” value in assay [1] came out at 130 µM. For the same molecule, in the assay on solid tumors, the tumor regression entry is given as “No significant tumor regression”.

(Values after patent publication US6770299B1, “Lipid matrix-drug conjugates particle for controlled release of active ingredient” (PharmaSol GmbH, priority 1999, dated 2004).)
